Reference: patent publication US20230212122A1, “MITOCHONDRIAL TARGETING COMPOUNDS FOR THE TREATMENT OF ASSOCIATED DISEASES” (The Regents of the University of Michigan, priority 2020, published 2023)

Legend:
Type in all cases: cell-based
UM16 cell line [1] = test: Nascent RNA sequencing (Bru-seq), gene fold change; details: 5 μM, 4 hours; protein-coding, upregulated
Description: Consistent with this observation, there are also massive metabolite pathways influenced including starch and sucrose metabolism, glycolysis and gluconeogenesis, purine metabolism, pyrimidine metabolism, N-glycan biosynthesis, etc.

UM16 cell line [2] = test: Proteomics, protein fold change; details: for Fold change: 5 μM
Description: Several proteins participating in energy metabolism were dramatically changed.

BxPc3 cells = test: MTT assay, cancer cell growth inhibition (BxPC-3); details: Homo sapiens, BXPC-3, 168 h, 7 days of treatment
Experimental: Measurement of cancer cell growth inhibition of the compounds of invention Cytotoxicity of the compounds was assessed by MTT assay. In brief, MIA PaCa-2 cells or BxPc3 cells were seeded in 96-well microtitre plates at density of 200 cells/well. After overnight attachment, cells were treated with compounds at indicated concentration. After 7 days of treatment, MTT solution (3 mg/ml, 20 μl) was added to each well and cells were incubated for 3 h at 37° C. After incubation, media from each well was removed and the dark blue formazan crystals formed by live cells were dissolved in DMSO ([…] per well). The absorbance intensity was measured at 570 nm on a microplate reader (Molecular Devices, Sunnyvale, Calif., USA). The half maximal inhibitory concentration (IC50) value were calculated using 4 or 6 dots curve plotted with Cumulative Gaussian equation or Log(inhibitor) vs. response equation in GraphPad Prism.

CCOC(=O)[C@@H]1CCCN(S(=O)(=O)c2ccc(S(=O)(=O)N(CC)CC)cc2)C1 [DX2-201, ethyl (R)-1-((4-(N,N-diethylsulfamoyl)phenyl)sulfonyl)piperidine-3-carboxylate]
Fold change ARHGAP30 (UM16 cell line [1]): 1.728
Fold change ARRDC3 (UM16 cell line [1]): 1.707
Fold change BNIP3L (UM16 cell line [1]): 1.723
Fold change CCNG2 (UM16 cell line [1]): 1.668
Fold change CREBRF (UM16 cell line [1]): 1.676
Fold change ERRFI1 (UM16 cell line [1]): 1.77
Fold change FOXO6 (UM16 cell line [1]): 1.954
Fold change HDAC5 (UM16 cell line [1]): 1.811
Fold change KLHL24 (UM16 cell line [1]): 2.336
Fold change LOXL4 (UM16 cell line [1]): 1.73
Fold change MXD4 (UM16 cell line [1]): 1.812
Fold change MXI1 (UM16 cell line [1]): 1.785
Fold change NDRG1 (UM16 cell line [1]): 2.874
Fold change PDK1 (UM16 cell line [1]): 1.779
Fold change PPP1R3C (UM16 cell line [1]): 1.699
Fold change PRDM1 (UM16 cell line [1]): 1.748
Fold change RNF122 (UM16 cell line [1]): 1.915
Fold change SEMA3B (UM16 cell line [1]): 1.668
Fold change SOX12 (UM16 cell line [1]): 1.903
Fold change UPRT (UM16 cell line [1]): 1.74
Fold change VLDLR (UM16 cell line [1]): 1.741
Fold change YPEL1 (UM16 cell line [1]): 1.706
Fold change ZNF546 (UM16 cell line [1]): 1.757
Serine protease 23, nuclear receptor family 2 group F member 6, protein NDRG1 (proteomic results) (UM16 cell line [2]): upregulated
Glycerol kinase fold change (UM16 cell line [2]; 24 hours, top upregulated): 3 fold
dihydrolilpoyl dehudrogenase fold change (UM16 cell line [2]; downregulated, TCA cycle enzyme): 0.684
Fold change (UM16 cell line [2]; protein ABTB2, 24 hours): 0.778
Fold change (UM16 cell line [2]; protein ALAS1, 24 hours): 1.393
Fold change (UM16 cell line [2]; protein ANKH, 24 hours): 0.777
Fold change (UM16 cell line [2]; protein ANKRD54, 24 hours): 0.799
Fold change (UM16 cell line [2]; protein AP1S2, 24 hours): 0.792
Fold change (UM16 cell line [2]; protein AP2S1, 24 hours): 0.781
Fold change (UM16 cell line [2]; protein APBB1IP, 24 hours): 1.458
Fold change (UM16 cell line [2]; protein BTBD10, 24 hours): 1.651
Fold change (UM16 cell line [2]; protein CCDC88C, 24 hours): 0.785
Fold change (UM16 cell line [2]; protein CCNT2, 24 hours): 1.65
Fold change (UM16 cell line [2]; protein CDC42BPA, 24 hours): 1.514
Fold change (UM16 cell line [2]; protein CDCA5, 24 hours): 0.761
Fold change (UM16 cell line [2]; protein CMTM4, 24 hours): 1.678
Fold change (UM16 cell line [2]; protein CYP51A1, 24 hours): 1.636
Fold change (UM16 cell line [2]; protein DHTKD1, 24 hours): 1.384
Fold change (UM16 cell line [2]; protein DLD, 24 hours): 0.684
Fold change (UM16 cell line [2]; protein DOLPP1, 24 hours): 0.731
Fold change (UM16 cell line [2]; protein DOPEY2, 24 hours): 0.797
Fold change (UM16 cell line [2]; protein DTNBP1, 24 hours): 0.794
Fold change (UM16 cell line [2]; protein FAH, 24 hours): 0.785
Fold change (UM16 cell line [2]; protein FAU, 24 hours): 0.742
Fold change (UM16 cell line [2]; protein Hist1h1d, 24 hours): 0.703
Fold change (UM16 cell line [2]; protein KIAA0355, 24 hours): 1.48
Fold change (UM16 cell line [2]; protein MED27, 24 hours): 0.79
Fold change (UM16 cell line [2]; protein MROH1, 24 hours): 1.386
Fold change (UM16 cell line [2]; protein NAA35, 24 hours): 1.377
Fold change (UM16 cell line [2]; protein NDRG1, 24 hours): 1.55
Fold change (UM16 cell line [2]; protein NOL8, 24 hours): 0.771
Fold change (UM16 cell line [2]; protein NR2F6, 24 hours): 1.842
Fold change (UM16 cell line [2]; protein NRGN, 24 hours): 0.795
Fold change (UM16 cell line [2]; protein OGFOD2, 24 hours): 0.754
Fold change (UM16 cell line [2]; protein OSTC, 24 hours): 1.418
Fold change (UM16 cell line [2]; protein PDCL, 24 hours): 0.752
Fold change (UM16 cell line [2]; protein PLP2, 24 hours): 0.763
Fold change (UM16 cell line [2]; protein PRSS23, 24 hours): 1.844
Fold change (UM16 cell line [2]; protein RCCD1, 24 hours): 1.443
Fold change (UM16 cell line [2]; protein RDH13, 24 hours): 1.429
Fold change (UM16 cell line [2]; protein RRM2B, 24 hours): 1.395
Fold change (UM16 cell line [2]; protein RUSC1, 24 hours): 0.771
Fold change (UM16 cell line [2]; protein SCAMP2, 24 hours): 0.729
Fold change (UM16 cell line [2]; protein SLC25A15, 24 hours): 0.796
Fold change (UM16 cell line [2]; protein TADA3, 24 hours): 1.45
Fold change (UM16 cell line [2]; protein TCEAL1, 24 hours): 1.382
Fold change (UM16 cell line [2]; protein TMEM55B, 24 hours): 1.664
Fold change (UM16 cell line [2]; protein UQCC3, 24 hours): 1.635
Fold change (UM16 cell line [2]; protein ZBTB21, 24 hours): 0.709
Fold change (UM16 cell line [2]; protein gk, 24 hours): 3.009
Fold change (UM16 cell line [2]; protein krt17, 24 hours): 1.386
Fold change (UM16 cell line [2]; protein pop7, 24 hours): 0.736
Fold change (UM16 cell line [2]; protein scaf8, 24 hours): 1.508
IC50 (BxPc3 cells): 630 ± 240 nM
